Values of other authors in patent US20250356483A1, “Quality Control Of In-Vitro Analysis Sample Output” (Sanofi, priority 2022, published 2025).

System: liver cells
Conditions: CPZ@60 micro moles

## CN(C)CCCN1c2ccccc2Sc2ccc(Cl)cc21 [CPZ, Chlorpromazine]
  known toxic effect of reference compound (positive control): toxic to liver cells and triggers cholestasis
